Source: patent US6413974B1, “6,9,-disubstituted 2-[trans-(4-aminocyclohexyl) amino] purines” (Aventis Pharmaceuticals Inc., priority 1998, dated 2002)
Values joined by “and” are separate entries in the source; they are usually repeats but may differ in a detail not shown here. Equal values may be shown once. Where a name gives a salt, the structure may show the parent alone. Read-outs that look alike come from different tables or passages of the source.

How the values were obtained:
A549 = assay: In vitro tumor cell proliferation, A549; format: cell-based, human; conditions: read-out: In vitro Tumor Cell Proliferation (IC50, μM) Lung A549
Procedure, shortened: (§1)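 Cells seeded overnight at 37° C, then exposed to drug 3 days, medium and drug renewed, plus 4 more days; TCA-fixed and sulforhodamine B stained. Alternatively CyQUANT read-out after 3 days' drug exposure, plates frozen at −80° C.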

cdk4/cyclin D1 = molecular target: T1, cdk4/cyclin D1 (Homo sapiens, UniProt P11802); assay: Cyclin-dependent kinase 4 Assay; format: biochemical; conditions: cdk4/cyclin D1, GST-Rb substrate, 10 μM ATP, 30 min at 37° C.; read-out: CDK4 Inhibition IC50
T1 construct: made in house; host or cells: Sf9 insect cells (Bac-to-Bac baculovirus, pFastBac)
T1 sequence (P11802 whole entry): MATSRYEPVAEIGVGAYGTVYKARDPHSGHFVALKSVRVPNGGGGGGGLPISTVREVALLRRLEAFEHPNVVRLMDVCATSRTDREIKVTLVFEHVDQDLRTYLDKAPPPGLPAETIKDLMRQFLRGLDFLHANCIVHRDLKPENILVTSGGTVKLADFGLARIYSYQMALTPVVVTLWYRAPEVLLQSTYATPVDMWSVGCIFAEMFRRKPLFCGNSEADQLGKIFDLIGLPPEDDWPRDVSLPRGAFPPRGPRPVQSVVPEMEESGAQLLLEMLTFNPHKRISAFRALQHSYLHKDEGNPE
T1 sequence (P24385 whole entry partner): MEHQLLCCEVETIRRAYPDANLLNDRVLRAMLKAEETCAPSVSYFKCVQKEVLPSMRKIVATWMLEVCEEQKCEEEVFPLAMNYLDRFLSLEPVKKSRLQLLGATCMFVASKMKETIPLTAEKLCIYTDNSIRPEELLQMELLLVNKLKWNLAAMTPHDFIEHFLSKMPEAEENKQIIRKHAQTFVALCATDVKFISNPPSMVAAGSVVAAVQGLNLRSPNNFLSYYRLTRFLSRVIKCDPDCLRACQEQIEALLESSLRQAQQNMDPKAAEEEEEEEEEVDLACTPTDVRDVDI
Procedure, shortened: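 Insect-cell lysate of coexpressed human cdk4/cyclin D1 (0.1 μg) phosphorylated bead-bound GST-Rb (0.5 μg) in 50 mM HEPES pH 7.5, 10 mM MgCl2, 1 mM EGTA for 30 min at 37 °C. Filters were washed with TNEN and scintillation-counted; IC50 values derived.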

DU 145 = assay: In vitro tumor cell proliferation, DU 145; format: cell-based, human
Procedure, shortened: as §1

PC-3 = assay: In vitro tumor cell proliferation, PC-3; format: cell-based, human; conditions: read-out: In vitro Tumor Cell Proliferation (IC50, μM) Prostate PC-3
Procedure, shortened: as §1

cdk2/cyclin E = molecular target: T2, cdk2/cyclin E (Homo sapiens, UniProt P24941); assay: Cyclin-Dependent Kinase 2 Assay (cdk-2 inhibition); format: biochemical; conditions: GST-Rb substrate, 30 min at 30° C.
T2 construct: made in house; host or cells: insect cells (baculovirus co-infection)
Procedure, shortened: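 GST-Rb bound to glutathione-Sepharose beads (0.5 μg/well) as substrate in 50 mM HEPES pH 7.5, 10 mM MgCl2, 1 mM EGTA. Recombinant cdk2/cyclin E at 0.1 μg per 100 μl, 30 min at 30 °C. Reaction stopped by filtration, TNEN washes, scintillation counting.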

MDA-MB-231 = assay: In vitro tumor cell proliferation, MDA-MB-231; format: cell-based, human; conditions: read-out: In vitro Tumor Cell Proliferation (IC50, μM) Breast MDA-MB-231
Procedure, shortened: as §1

MCF-7 = assay: In vitro tumor cell proliferation, MCF-7; format: cell-based, human; conditions: read-out: In vitro Tumor Cell Proliferation (IC50, μM) Breast MCF-7
Protocol: (§2) The proliferation of tumor cells was measured using a sulforhodamine B assay as described in Skehan, P., et al., J. Natl. Cancer Inst. […] Tumor cells were harvested with trypsin-EDTA, cells that excluded trypan blue were counted, added to 96-well plates and incubated overnight at 37° C. Drug was added to the wells following dilution in culture medium. Three days later, the medium was removed and replenished with medium containing fresh drug and incubated an additional 4 days. The cells were then fixed with 0.1 ml 10% trichloroacetic acid for 60 min at 4° C. The plates were rinsed five times with tap water, air-dried and stained for 30 min with 0.4% sulforhodamine B in 1% acetic acid and air-dried.
(§3) Alternatively, the CyQUANT cell proliferation assay was used to quantify tumor cell proliferation. Tumor cells were harvested with trypsin-EDTA, cells that excluded trypan blue were counted, added to 96-well plates and incubated overnight at 37° C. Drug was added to the wells following dilution in culture medium. Three days later the medium was removed and the plates frozen at −80° C. for at least 30 minutes.
MCF7 is a human breast adenocarcinoma, hormone-dependent (HTB 22);

HCT-15 = assay: In vitro tumor cell proliferation, HCT-15; format: cell-based, human; conditions: read-out: In vitro Tumor Cell Proliferation (IC50, μM) Colon HCT-15
Protocol: as §2, §3

DMS-114 = assay: In vitro tumor cell proliferation, DMS-114; format: cell-based, human; conditions: read-out: In vitro Tumor Cell Proliferation (IC50, μM) Lung DMS-114
Procedure, shortened: as §1

HT-29 = assay: In vitro tumor cell proliferation, HT-29; format: cell-based, human; conditions: read-out: In vitro Tumor Cell Proliferation (IC50, μM) Colon HT-29 (converted)
Procedure, shortened: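 HT-29 human colon adenocarcinoma cells plated overnight at 37° C., then exposed to drug for 3 days, medium with fresh drug replaced for a further 4 days. Cells fixed with 10% TCA and stained with 0.4% sulforhodamine B; alternatively, CyQUANT read after 3 days of drug exposure.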

[1] = Homo sapiens, A549, values without *
[2] = values without *, dihydrochloride
[3] = Homo sapiens, PC-3, values without *
[4] = Homo sapiens, MDA-MB-231, values without *
[5] = Homo sapiens, MCF7, values without *
[6] = Homo sapiens, HCT-15, values without *
[7] = Homo sapiens, DMS-114, values without *
[8] = Homo sapiens, HT-29, values without *
[9] = Homo sapiens, DU-145, values without *, read-out: In vitro Tumor Cell Proliferation (IC50, μM) Prostate DUI45
[10] = values without *, dihydrochloride, read-out: In vitro Tumor Cell Proliferation (IC50, μM) Prostate DUI45

| Structure (SMILES) | IC50 (A549; [1]) [µM] | IC50 (A549; [2]) [µM] | IC50 (cdk4/cyclin D1) | IC50 (PC-3; [3]) [µM] | IC50 (PC-3; [2]) | IC50 (cdk2/cyclin E) | IC50 (MDA-MB-231; [4]) [µM] | IC50 (MDA-MB-231; [2]) [µM] | IC50 (MCF-7; [5]) [µM] | IC50 (MCF-7; [2]) [µM] | IC50 (HCT-15; [6]) [µM] | IC50 (HCT-15; [2]) [µM] | IC50 (DMS-114; [7]) [µM] | IC50 (DMS-114; [2]) [µM] | IC50 (HT-29; [8]) [µM] | IC50 (HT-29; [2]) | IC50 (DU 145; [9]) [µM] | IC50 (DU 145; [10]) | other results |
| --- | --- | --- | --- | --- | --- | --- | --- | --- | --- | --- | --- | --- | --- | --- | --- | --- | --- | --- | --- |
| N[C@H]1CC[C@H](Nc2nc(NCc3cccc(I)c3)c3ncn(C4CCCC4)c3n2)CC1 [Example 1, 2-[Trans-(4-aminocyclohexyl)amino]-6-(3-iodobenzylamino)-9-cyclopentylpurine dihydrochloride] | 1.1 | 1 | 2000 nM | 1.9 | 1.1 µM and 1.2 µM | 50 nM and 70 nM and 85 nM and 37 nM and 55 nM and 65 nM | 1.1 | 0.8 | 0.7 | 0.6 | 2.2 | 1.9 | 1.2 | 0.9 | 0.9 | 1 µM and 1.6 µM | – | – | IC50 (DU 145; Homo sapiens, DU-145, read-out: In vitro Tumor Cell Proliferation (IC50, μM) Prostate DUI45, values without *): 2 µM; IC50 (DU 145; read-out: In vitro Tumor Cell Proliferation (IC50, μM) Prostate DUI45, values without *, dihydrochloride): 1.6 µM and 1.2 µM |
| N[C@H]1CC[C@H](Nc2nc(NCc3ccc(Cl)c(Cl)c3)c3ncn(C4CCCC4)c3n2)CC1 [Example 10, 2-[Trans-(4-aminocyclohexyl)amino]-6-[(3,4-dichlorobenzyl)amino]-9-cyclopentylpurine dihydrochloride] | 1.7 | 0.98 | 190 nM and 300 nM | 0.97 | 0.79 µM | 140 nM | 1.2 | 1.7 | 1.1 | 1.8 | 1.9 | – | 1.5 | – | 1.6 | – | 0.97 | 1.8 µM | – |
| C[C@@H](Nc1nc(NC2CCC(N)CC2)nc2c1ncn2C1CCCC1)c1ccccc1 (stereo partly drawn) [Example 16, (R)-2-[Trans-(4-aminocyclohexyl)amino]-6-[(α-methylbenzylamino]-9-cyclopentylpurinedihydrochloride] | 6.4 | 5.8 | 11000 nM and 6700 nM | 5 | 2.8 µM | 720 nM | 5.9 | 4.4 | 4.1 | 2.5 | 9.4 | 7.8 | 7.4 | 5.1 | 6.3 | 5.1 µM | 6.2 | 5 µM | – |
| CC(C)CCNc1nc(N[C@H]2CC[C@H](N)CC2)nc2c1ncn2C1CCCC1 [Example 36, 2-[Trans-(4-aminocyclohexyl)amino]-6-[(3-methylbutyl)amino]-9-cyclopentylpurine dihydrochloride] | 0.8 | 0.94 | 1100 nM and 600 nM | 0.68 | – | 120 nM | 1.4 | 2 | 1.1 | 1.3 | 3.1 | 3.3 | 0.88 | 0.91 | 1.5 | 1.9 µM | 0.89 | 1.1 µM | – |
| N[C@H]1CC[C@H](Nc2nc(NCCc3ccccc3)c3ncn(C4CCCC4)c3n2)CC1 [Example 43, 2-[Trans-(4-aminocyclohexyl)amino-6-[2-(phenyl)ethylamino]-9-cyclopentylpurinedihydrochloride] | 1.1 | 1 | 250 nM | 0.89 | 0.92 µM | 160 nM | 2.1 | 2.5 | 1.2 | 1.6 | 3.4 | 3.2 | 0.92 | 1.2 | 2.2 | 2.8 µM | 1.2 | 1.4 µM | – |

Further lines, with some results ahead:

| IC50 (A549; [1]) [µM] | IC50 (A549; [2]) [µM] | IC50 (cdk4/cyclin D1) | IC50 (PC-3; [3]) [µM] | IC50 (PC-3; [2]) | IC50 (cdk2/cyclin E) | IC50 (MDA-MB-231; [4]) [µM] | IC50 (MDA-MB-231; [2]) [µM] | IC50 (MCF-7; [5]) [µM] | IC50 (MCF-7; [2]) [µM] | IC50 (HCT-15; [6]) [µM] | IC50 (HCT-15; [2]) [µM] | IC50 (DMS-114; [7]) [µM] | IC50 (DMS-114; [2]) [µM] | IC50 (HT-29; [8]) [µM] | IC50 (HT-29; [2]) | IC50 (DU 145; [9]) [µM] | IC50 (DU 145; [10]) | Structure (SMILES) | other results |
| --- | --- | --- | --- | --- | --- | --- | --- | --- | --- | --- | --- | --- | --- | --- | --- | --- | --- | --- | --- |
| 0.6 | 0.63 | 390 nM and 660 nM | 0.37 | – | 33 nM and 17 nM | 0.95 | 1.2 | 0.59 | 0.81 | 3.9 | 3.6 | 0.49 | 0.73 | 0.92 | 1.5 µM | 0.54 | 0.6 µM | CCCCNc1nc(N[C@H]2CC[C@H](N)CC2)nc2c1ncn2C1CCCC1 [Example 3, 2-[Trans-(4-aminocylcohexyl)amino]-6-(butylamino)-9-cyclopentylpurine dihydrochloride] | – |
| 0.15 | – | 570 nM and 900 nM | 0.13 | 0.23 µM | 130 nM | – | – | 0.34 | 0.47 | 1.4 | 1 | 0.14 | 0.13 | 0.16 | 0.17 µM and 0.28 µM | 0.39 | 0.38 µM and 0.51 µM | N[C@H]1CC[C@H](Nc2nc(NCCCc3ccccc3)c3ncn(C4CCCC4)c3n2)CC1 [Example 24, 2-[Trans-(4-aminocyclohexyl)amino]-6-[3-(phenyl)propylamino]-9-cyclopentylpurine dihydrochloride] | IC50 (A549; Homo sapiens, A549, values marked * (mark not explained)): 0.11 µM; IC50 (DU 145; Homo sapiens, DU-145, values marked * (mark not explained), read-out: In vitro Tumor Cell Proliferation (IC50, μM) Prostate DUI45): 0.54 µM; IC50 (PC-3; Homo sapiens, PC-3, values marked * (mark not explained)): 0.2 µM; IC50 (MDA-MB-231; Homo sapiens, MDA-MB-231, values marked * (mark not explained)): 0.24 µM; IC50 (MCF-7; Homo sapiens, MCF7, values marked * (mark not explained)): 0.42 µM; IC50 (HCT-15; Homo sapiens, HCT-15, values marked * (mark not explained)): 0.99 µM; IC50 (DMS-114; Homo sapiens, DMS-114, values marked * (mark not explained)): 0.07 µM; IC50 (HT-29; Homo sapiens, HT-29, values marked * (mark not explained)): 0.19 µM |
